Source: patent US5434136A, “Treatment of motility disorders with a GNRH analog” (priority 1992, dated 1995)
Like-named read-outs stand apart in the source and are kept apart here.

How the values were obtained:
[1] = test system: migrating motor complexes, jejunum; experiment: Leuprolide acetate effects on migrating motor complexes in rats; assay type: in vivo, female Wistar rats; conditions: for Migrating Motor Complexes, L-Fasted / Migrating Motor Complexes, L-Fed: mean ± SEM
Protocol: Eleven female Wistar rats weighing between 175 and 250 g were each implanted with four bipolar Ag/AgCL electrodes (the preparation of which is described in: Mathias, Am. J. Physiology, 249:[…]-[…], 1981). The electrodes were sewn 5 cm from the Ligament of Trietz and 5 cm apart, onto the jejunal serosa. The number of migrating myoelectric complexes was recorded using a R-612 Dynograph (Sensor-Medics, Anaheim, Calif.). Rats were fasted for 36 hours prior to recording and feeding (no food, liberal water), and were housed in special cages to remove feces. After 36 hours of fasting, Migrating Motor Complexes (MMC) were recorded at a sensitivity of 0.2 mV/cm, 2.5 mm/sec paper speed, and a Time Constant of 1 for a duration of 2 to 4 hours. Immediately following the fasted recording session, the rats were fed 2 biscuits of Purina rat chow with simultaneous recording during feeding and continued for 4 hours. This procedure was followed for 2 to 4 recording sessions prior to the treatment with leuprolide acetate (Controls). Leuprolide acetate was then administered daily, in the morning, subcutaneously in the hind limb at a dose ranging from 2 to 40 ug/100 g body weight. After a period of at least 24 hours post treatment with leuprolide, the fasting/fed recording sessions were begun as described for the controls to obtain recordings through 2 to 4 sessions.

[2] = test system: end-stage scleroderma; experiment: Treatment of end stage scleroderma with leuprolide acetate; assay type: in vivo, human; conditions: Patient 6, 0.5 mg daily s.c.
Protocol: Patient number 6 was in end-stage scleroderma. They had been bed-ridden for approximately eight months, unable to retain food after eating, and was being maintained on total parental hyperalimentation (TPN) to keep up body weight and fluid and electrolyte balance for five months. This patient was treated with 0.5 mg Leuprolide acetate daily, by subcutaneous injection according to the protocol of example 1.

[3] = test system: functional bowel disorders; assay type: in vivo, human
Text: The symptoms of the two patients with GMD were abdominal pain located in the right upper quadrant and epigastrium, daily nausea, and intermittent vomiting exacerbated by eating and by the luteal phase of the menstrual cycle. The two patients with IIHVN had abdominal pain, nausea, and intermittent vomiting, and also had urinary tract involvement consisting of pain and a decrease in urination. The fifth patient had Roux-en-Y syndrome (defined as epigastric-to-right-upper-quadrant pain, nausea, and vomiting increased by eating) after surgical construction of a gastro-jejunal Roux-en-Y anastomosis. The mean duration of these symptoms was eight years (Table 1). All subjects had undergone extensive blood testing, several upper gastrointestinal x-ray series, barium enemas, esophagogastroduodenoscopy, endoscopic retrograde cholangiopancreatography, gastric emptying tests with radiolabeled meal, ultrasound of the abdomen, computerized axial tomography of the abdomen, and many other tests. The results of all tests were normal, except for prolonged gastric emptying in the patient with the Roux-en-Y Syndrome. Because of their intractable clinical problem, these patients were included in the test protocol with leuprolide acetate. Protocol: The symptoms of each patient were first assessed, and their tests evaluated. Each patient kept a daily symptom diary. Leuprolide acetate was obtained by prescription as Lupron (TAP pharmaceuticals, Abbott Labs, North Chicago, Ill.). One multi-use vial of Lupron comprised of […] Leuprolide Acetate. A daily dose of 0.5 mg ([…]) was self-administered by subcutaneous injection, for a period of three months. Each patient was examined at 0, 1 and 3 months of treatment. After the third month, leuprolide was continued as previously, and estrogen (0.625 mg orally) and calcium (1000 mg orally) were also administered. At the end of the sixth month, a two week withdrawal period from leuprolide acetate ensued. During this period a 10 mg oral dose of progesterone was given to pre-menopausal patients, to assess recurrence of symptoms and to induce menses. Post-menopausal women were not treated with progesterone during the two week withdrawal period. This procedure was then continued for an additional six months, with drug withdrawal and progesterone given every three months to induce a menstrual cycle. Serum estradiol, progesterone, FSH, and LH were quantitated by radioimmunoassay prior to the initiation of leuprolide treatment, and at three months post treatment initiation. The procedure of example 1 was followed with additional patients. […] One patient listed as a failure elected to withdraw from the program after four weeks of treatment. One patient after recovering from the symptoms of their autonomic neuropathy expired from a massive myocardial infarction (Responded--expired). These patients were treated with Leuprolide acetate following the protocol established in Example 1.

[4] = test system: irritable bowel syndrome; conditions: patient
Protocol: The patient, a patient suffering from irritable bowel syndrome presented symptoms of nausea, vomiting, abdominal pain, and altered bowel habits. This patient was treated with lupron, 2.0 mg/day by subcutaneous injection, for a period of six months. […] Nafarelin is a GnRH analog available from SYNTEX, which differs from the natural GnRH peptide in a D-Nal (2)^6 substitution. […] Nafarelin therapy was discontinued, and treatment with Danazol, a 17-ethyltestosterone derivative known to antagonize GnRH receptors at the level of the pituitary, was begun, at 200 mg four times daily, P.O., for a period of three months.

SMILES: CCNC(=O)[C@@H]1CCCN1C(=O)[C@H](CCCNC(=N)N)NC(=O)[C@H](CC(C)C)NC(=O)[C@@H](CC(C)C)NC(=O)[C@H](Cc1ccc(O)cc1)NC(=O)[C@H](CO)NC(=O)[C@H](Cc1c[nH]c2ccccc12)NC(=O)[C@H](Cc1c[nH]cn1)NC(=O)[C@@H]1CCC(=O)N1 [Leuprolide acetate, leuprolide acetate]
- Migrating Motor Complexes, L-Fasted ([1]; 2 μg/100 g body weight s.c. daily, control fasted 4.69 ± 0.24): 4.60 ± 0.12 MMC/hour
- Migrating Motor Complexes, L-Fed ([1]; 2 μg/100 g body weight s.c. daily, control fed 2.60 ± 0.27): 4.83 ± 0.65 MMC/hour
- Migrating Motor Complexes, L-Fasted ([1]; 20 μg/100 g body weight s.c. daily, control fasted 4.43 ± 0.25): 5.41 ± 0.17 MMC/hour
- Migrating Motor Complexes, L-Fed ([1]; 20 μg/100 g body weight s.c. daily, control fed 1.40 ± 0.48): 4.11 ± 0.22 MMC/hour
- Migrating Motor Complexes, L-Fasted ([1]; 40 μg/100 g body weight s.c. daily, control fasted 4.75 ± 0.48): 4.48 ± 0.12 MMC/hour
- Migrating Motor Complexes, L-Fed ([1]; 40 μg/100 g body weight s.c. daily, control fed 2.33 ± 0.33): 3.45 ± 0.25 MMC/hour
- Dose at which the fed state was replaced by cycling MMCs (as little as) ([1]; fed rats): 2 μg/100 g body weight
- Eating and body weight at discharge [2]: eating without difficulty, and had gained weight
- Need for TPN feeding after five weeks of therapy [2]: did not require the TPN feeding
- Mobility after five weeks of therapy ([2]; bed-ridden before): able to move about actively
- Duration of therapy until symptom free ([3]; Patient 7): ≤ 8 weeks
- Response ([3]; Patient 7, Pelvic Floor Dysfunction): symptom free
- Response ([3]; Patient 7, Pelvic Floor Dysfunction, listed as leuprolide): Responded
- Response ([3]; Patient 8, Chronic Intestinal Pseudo Obstruction, listed as leuprolide): Responded
- Response ([3]; Patient 8, Chronic Intestinal Pseudo Obstruction, listed as leuprolide acetate): does not chronically experience severe symptoms
- Hospital admissions since therapy was begun ([3]; Patient 8, before: at least one week per month in hospital): no hospital admissions
- Response ([3]; Patient 9, Roux-en-Y-Syndrome): Responded
- Response ([3]; Patient 10, Roux-en-Y-Syndrome, withdrew): Failure
- Response ([3]; Patient 11, Chronic Intestinal Pseudo Obstruction, side effects): Failure
- Response ([3]; Patient 12, Roux-en-Y-Syndrome, expired): Failure
- Need for parental alimentation for weight control ([3]; Patient 13): no longer requires parental alimentation
- Urination ([3]; Patient 13): improved
- Response ([3]; Patient 13, Idiopathic Intestinal Hollow Visceral Myopathy/Neuropathy, protocol of example 1): improved dramatically
- Response ([3]; Patient 13, Idiopathic Intestinal Hollow Visceral Myopathy/Neuropathy, protocol of example 1, listed as leuprolide): Responded
- Response ([3]; Patient 14, Pelvic Floor Dysfunction): Failure
- Need for parental supplementation ([3]; Patient 15): requires no parental supplementation
- Response ([3]; Patient 15, Chronic Intestinal Pseudo Obstruction): steadily improved
- Response ([3]; Patient 15, Chronic Intestinal Pseudo Obstruction, listed as leuprolide): Responded
- Response ([3]; Patient 16, Roux-en-Y-Syndrome): relieved
- Response ([3]; Patient 16, Roux-en-Y-Syndrome, listed as leuprolide): Responded
- Body weight maintained under therapy ([3]; Patient 16, weight before 96 pounds): 115-118 pounds
- Theophylline requirement for lung disease ([3]; Patient 17): smaller dose of Theophylline is now required
- Response ([3]; Patient 17, Gastrointestinal Motor Dysfunction, protocol of example 1): abated
- Response ([3]; Patient 17, Gastrointestinal Motor Dysfunction, protocol of example 1, listed as leuprolide): Responded
- Pulmonary function tests ([3]; Patient 17, chronic obstructive lung disease): dramatic improvement
- Response ([3]; Patient 18, Idiopathic Intestinal Hollow Visceral Myopathy/Neuropathy, protocol of example 1): all of their symptoms have improved except for their obstipation
- Response ([3]; Patient 18, Idiopathic Intestinal Hollow Visceral Myopathy/Neuropathy, protocol of example 1, listed as leuprolide): Responded
- Duration of therapy after which all symptoms had disappeared ([3]; Patient 19): 6 weeks
- Response ([3]; Patient 19, Gastrointestinal Motor Dysfunction, protocol of example 1, listed as leuprolide): Responded
- Course after the drug was discontinued ([3]; Patient 19, discontinued after six months of treatment): no recurrent disease
- Response ([3]; Patient 20, Gastrointestinal Motor Dysfunction, protocol of example 1): symptom-free
- Response ([3]; Patient 20, Gastrointestinal Motor Dysfunction, protocol of example 1, listed as leuprolide): Responded
- Response ([3]; Patient 21, Gastrointestinal Motor Dysfunction): Responded
- Swallowing and eating ([3]; Patient 22): now able to swallow and eat
- Response ([3]; Patient 22, Gastrointestinal Motor Dysfunction, response seen after three weeks of therapy): dramatic response
- Response ([3]; Patient 22, Gastrointestinal Motor Dysfunction, response seen after three weeks of therapy, listed as leuprolide): Responded
- Need of opiates for pain ([3]; Patient 23): did not require opiates for pain
- Response ([3]; Patient 23, Roux-en-Y-Syndrome): Responded
- Response ([3]; Patient 23, Roux-en-Y-Syndrome, listed as Lupron): symptom free
- Side effects leading to withdrawal from treatment ([3]; human, in vivo): bone pain
- Number of patients who failed to respond ([3]; of the twenty-six treated to date): Four
- Response of the majority of patients ([3]; twenty-six patients treated to date): full recovery
- Blood levels of FSH and LH ([4]; 2.0 mg/day s.c., six months (entry one)): effectively reduced their blood levels of FSH and LH
- Symptoms of irritable bowel disease ([4]; 2.0 mg/day s.c., six months (entry two)): effectively reduced the symptoms of their irritable bowel disease
- Irritable bowel symptoms ([4]; depot of 7.5 mg I.M. monthly with 100 mg testosterone depot I.M. monthly, after six months): controlled without side effects
